ChEMBL document CHEMBL1122916, “Synthesis of xanthines as adenosine antagonists, a practical quantitative structure-activity relationship application” (J Med Chem, 1985)
In brackets after ≈: the same amount, converted by molar mass.

Experiments:
[1] = target: T1, Adenosine receptor A1 (Bos taurus, UniProt P28190)
T1 sequence (P28190 whole entry): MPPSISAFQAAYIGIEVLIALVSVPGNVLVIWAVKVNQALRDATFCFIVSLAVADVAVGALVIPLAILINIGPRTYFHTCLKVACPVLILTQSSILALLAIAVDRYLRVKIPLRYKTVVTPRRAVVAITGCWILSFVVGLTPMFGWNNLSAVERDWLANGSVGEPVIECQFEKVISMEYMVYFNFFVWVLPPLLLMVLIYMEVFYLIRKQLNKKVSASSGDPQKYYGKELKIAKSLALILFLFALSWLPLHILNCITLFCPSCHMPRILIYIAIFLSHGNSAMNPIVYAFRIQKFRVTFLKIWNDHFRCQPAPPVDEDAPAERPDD
Description: Binding affinity against bovine brain adenosine A1 receptor by using N6-[3H]- cyclohexyladenosine

[2] = species on record: Bos taurus; test: log(1000/IC50 determined from bovine brain membrane) expressed as potency; assay type: functional
[3] = target: T2, Adenosine receptor A1 (Rattus norvegicus, UniProt P25099); test: Binding affinity against rat brain adenosine A1 receptor by using N6-[3H]- cyclohexyladenosine as radioligand
T2 sequence (P25099 whole entry): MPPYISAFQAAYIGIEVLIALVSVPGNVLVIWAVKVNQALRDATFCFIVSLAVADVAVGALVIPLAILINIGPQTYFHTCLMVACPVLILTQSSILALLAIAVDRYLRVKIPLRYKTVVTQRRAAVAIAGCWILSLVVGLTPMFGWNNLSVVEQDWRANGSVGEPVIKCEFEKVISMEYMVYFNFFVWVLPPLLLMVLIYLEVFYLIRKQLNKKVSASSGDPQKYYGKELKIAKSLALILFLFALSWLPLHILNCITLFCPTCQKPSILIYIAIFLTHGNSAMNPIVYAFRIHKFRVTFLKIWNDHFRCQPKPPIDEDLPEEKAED

[4] = Equilibrium constant (pKa) was determined.; assay type: physicochemical
[5] = Solubility in 0.1 M phosphate buffer at pH 7.4; assay type: physicochemical; details: phosphate buffer, read-out: Solubility
[6] = Solubility in 0.1 N HCl; assay type: physicochemical
[7] = Partition coefficient (logP); assay type: physicochemical; details: octanol/water

IC50 [1] [nM] | SMILES | Potency [2] | other results
10.3 | C=CCn1c(=O)c2nc(-c3ccc(S(=O)(=O)NCCCN(C)C)cc3)[nH]c2n(CC=C)c1=O | – | –
– | CC(C)c1ccc(-c2nc3c(=O)n(C)c(=O)n(C)c3[nH]2)cc1 | 2.6 | –
– | C=CCn1c(=O)c2[nH]c(-c3ccc(C)cc3N)nc2n(C)c1=O | 2.15 | –
0.75 | Cn1c(=O)c2[nH]c(-c3ccc(Br)cc3)nc2n(C)c1=O | – | –
– | Cn1c(=O)c2nc(-c3ccccc3C(=O)O)[nH]c2n(C)c1=O | -0.4 | –
1.75 | Cn1c(=O)c2[nH]c(-c3ccc(N)cc3)nc2n(C)c1=O | – | –
– | Cn1c(=O)c2nc(-c3cccc(C(=O)O)c3)[nH]c2n(C)c1=O | 0 | –
– | Cn1c(=O)c2nc(-c3ccc(I)cc3)[nH]c2n(C)c1=O | 2.89 | –
– | CCCn1c(=O)c2nc(-c3ccccc3)[nH]c2n(CCC)c1=O | 3.15 | –
– | CN(C)c1cccc(-c2nc3c(=O)n(C)c(=O)n(C)c3[nH]2)c1 | 1.1 | –
– | Cn1c(=O)c2nc(-c3ccc(F)cc3)[nH]c2n(C)c1=O | 2.46 | –
– | Cn1c(=O)c2nc(-c3ccc(Cl)cc3N)[nH]c2n(C)c1=O | 3.46 | –
4.2 | CCn1c(=O)c2nc(-c3ccc(S(=O)(=O)NCC(C)O)cc3)[nH]c2n(CC)c1=O (stereo not drawn) | – | IC50 [3]: 138 nM
– | Cn1c(=O)c2nc(-c3cccc4ccccc34)[nH]c2n(C)c1=O | 1.1 | –
– | Cn1c(=O)c2nc(-c3ccc([N+](=O)[O-])cc3)[nH]c2n(C)c1=O | 2.1 | –
29.4 | CCn1c(=O)c2nc(-c3cccc(S(=O)(=O)NCCN(C)C)c3)[nH]c2n(CC)c1=O | – | IC50 [3]: 553 nM
– | Cn1c(=O)c2nc(-c3ccccc3O)[nH]c2n(C)c1=O | 2 | –
– | Cn1c(=O)c2nc(-c3cccc(N)c3)[nH]c2n(C)c1=O | 2 | –
755 | CCn1c(=O)c2[nH]c(-c3ccc(S(=O)(=O)O)cc3)nc2n(CC)c1=O | – | pKa [4]: < 2; solubility [5]: > 57000 µg/mL; solubility [6]: > 8000 µg/mL; IC50 [3]: 5540 nM; logP [7]: -0.97
0.7 | CCCn1c(=O)c2[nH]c(-c3ccccc3)nc2n(CCC)c1=O | – | –
– | Cn1c(=O)c2nc(-c3ccc(Cl)c(Cl)c3)[nH]c2n(C)c1=O | 2.3 | –

IC50 [1] [nM] | SMILES | Potency [2] | other results
0.75 | CCCn1c(=O)c2nc(-c3ccccc3N)[nH]c2n(CCC)c1=O | – | pKa [4]: 9.1; solubility [5]: < 1 µg/mL; solubility [6]: 4 µg/mL (≈ 12.2 µM); IC50 [3]: 41 nM; logP [7]: 3.54
5.5 | Cn1c(=O)c2[nH]c(-c3ccc4ccccc4c3)nc2n(C)c1=O | – | –
– | Cn1c(=O)c2nc(-c3ccccc3F)[nH]c2n(C)c1=O | 1.9 | –
13 | CCn1c(=O)c2[nH]c(-c3ccc(S(=O)(=O)N4CCOCC4)cc3)nc2n(CC)c1=O | – | IC50 [3]: 310 nM
1140 | C=CCn1c(=O)c2nc(-c3ccc(S(=O)(=O)O)cc3)[nH]c2n(CC=C)c1=O | – | IC50 [3]: 7440 nM
36.6 | CCn1c(=O)c2[nH]c(-c3ccc(S(=O)(=O)N4CCSCC4)cc3)nc2n(CC)c1=O | – | IC50 [3]: 646 nM
0.24 | CCCn1c(=O)c2nc(-c3ccc(S(=O)(=O)NCCCC(=O)OCC)cc3)[nH]c2n(CCC)c1=O | – | IC50 [3]: 18.5 nM
– | Cc1cccc(-c2nc3c(=O)n(C)c(=O)n(C)c3[nH]2)c1 | 1.89 | –
– | Cc1cc(O)cc(C)c1-c1nc2c(=O)n(C)c(=O)n(C)c2[nH]1 | 1.52 | –
– | CN(C)c1ccc(-c2nc3c(=O)n(C)c(=O)n(C)c3[nH]2)cc1 | 2.74 | –
– | Cc1ccc(-c2nc3c(=O)n(C)c(=O)n(C)c3[nH]2)cc1 | 3.1 | –
– | Cn1c(=O)c2nc(-c3ccc(-c4ccccc4)cc3)[nH]c2n(C)c1=O | 2.46 | –
– | CCn1c(=O)c2nc(-c3ccc(Br)cc3)[nH]c2n(CC)c1=O | 3 | –
– | COc1cc(OC)cc(-c2nc3c(=O)n(C)c(=O)n(C)c3[nH]2)c1 | 0.3 | –
– | Cn1c(=O)c2nc(-c3ccc(C(=O)O)cc3)[nH]c2n(C)c1=O | 1.3 | –
8420 | CCn1c(=O)c2[nH]c(-c3cccc(S(=O)(=O)O)c3)nc2n(CC)c1=O | – | IC50 [3]: 30700 nM
– | Cc1ccc(-c2nc3c(=O)n(C)c(=O)n(C)c3[nH]2)c(N)c1 | 2 | –
6.5 | Cc1ccccc1-c1nc2c([nH]1)c(=O)n(C)c(=O)n2C | – | –
– | COc1ccc(-c2nc3c(=O)n(C)c(=O)n(C)c3[nH]2)c(OC)c1 | 0.7 | –
– | CCCCOc1ccc(-c2nc3c(=O)n(C)c(=O)n(C)c3[nH]2)cc1 | 2.4 | –
